Values of other authors, collected in patent US20210353783A1, “IMAGING AGENTS FOR RADIOLABELING EXOGENOUS AND ENDOGENOUS ALBUMIN” (CENTURION BIOPHARMA CORPORATION, priority 2018, published 2021).

Tests used:
[1] = phase 1-3 clinical trials
[2] = molecular target: circulating albumin (Homo sapiens, UniProt P02768)
[3] = human, after intravenous administration, bound to cysteine-34 of endogenous albumin

circulating albumin, sequence (P02768 25-609): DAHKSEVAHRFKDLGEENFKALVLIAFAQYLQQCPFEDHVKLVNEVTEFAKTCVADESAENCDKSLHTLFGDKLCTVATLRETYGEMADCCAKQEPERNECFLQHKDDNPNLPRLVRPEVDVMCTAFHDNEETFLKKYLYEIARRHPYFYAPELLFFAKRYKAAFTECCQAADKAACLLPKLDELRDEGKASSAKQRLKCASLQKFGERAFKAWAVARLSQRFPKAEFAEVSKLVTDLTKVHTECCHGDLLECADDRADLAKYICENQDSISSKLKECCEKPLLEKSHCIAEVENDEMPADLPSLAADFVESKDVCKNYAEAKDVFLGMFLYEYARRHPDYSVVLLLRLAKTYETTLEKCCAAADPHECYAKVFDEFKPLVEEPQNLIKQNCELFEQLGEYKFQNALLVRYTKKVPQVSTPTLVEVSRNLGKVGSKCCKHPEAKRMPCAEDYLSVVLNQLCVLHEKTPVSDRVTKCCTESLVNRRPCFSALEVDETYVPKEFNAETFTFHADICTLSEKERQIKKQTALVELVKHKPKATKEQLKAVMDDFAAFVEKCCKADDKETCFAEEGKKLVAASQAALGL

COc1cccc2c1C(=O)c1c(O)c3c(c(O)c1C2=O)C[C@@](O)(/C(CO)=N/NC(=O)CCCCCN1C(=O)C=CC1=O)C[C@@H]3O[C@H]1C[C@H](N)[C@H](O)[C@H](C)O1 [aldoxorubicin, (6-maleimidocaproyl)hydrazone derivative of doxorubicin]
cardiotoxicity [1]: lack of cardiotoxicity
increase in the maximum tolerated dose (MTD) compared to conventional doxorubicin [1]: 3.5 fold
binding to circulating albumin [2]: rapidly and selectively bound to circulating albumin within a few minutes
t1/2 in man [3]: 20 to 21 h
